Results as given in US9056843B2, “Trifluoromethyl-oxadiazole derivatives and their use in the treatment of disease” (NOVARTIS AG, priority 2011, dated 2015).
Like-named read-outs stand apart in the source and are kept apart here.

How the values were obtained:
Format in all cases: biochemical
[1] = biological target: Human recombinant full length HDAC6 (Homo sapiens (Human), UniProt Q9UBN7); test: Test 4: HDAC6 assay
Procedure: (§1) Control wells with HDAC4 only (positive control) and without HDAC4 (negative control) were included on the microplate. Bovine trypsin (4.5 μl of a 300 nM solution) was added and the plate incubated for additional 15 minutes at room temperature. The plate was placed in a fluorescence microplate reader, and read at an excitation wavelength of 360 nm and an emission wavelength of 450 nm with a 10 nm bandpath. Fluorescence values for all wells containing HDAC4 (positive control and wells with test compound) were corrected by subtracting negative control fluorescence values, and IC50 values were calculated by fitting the dose-response curves to a 4-parameter logistic function.
Test 4: HDAC6 Assay Description
A similar assay procedure as described in Test 2 was used for HDAC6. Human recombinant full length HDAC6 expressed in a baculovirus expression system was purchased from BPS BioSciences (San Diego, Calif., U.S.A.). The substrate used in the […] assay was 5 μM of acetyl-Gly-Ala-Lys(acetyl)-AMC.

[2] = biological target: Human recombinant full length HDAC1 (Homo sapiens (Human), UniProt Q13547); test: Test 3: HDAC1 assay; conditions: substrate 5 μM acetyl-Gly-Ala-Lys(acetyl)-AMC
Human recombinant full length HDAC1, sequence (Q13547 whole entry): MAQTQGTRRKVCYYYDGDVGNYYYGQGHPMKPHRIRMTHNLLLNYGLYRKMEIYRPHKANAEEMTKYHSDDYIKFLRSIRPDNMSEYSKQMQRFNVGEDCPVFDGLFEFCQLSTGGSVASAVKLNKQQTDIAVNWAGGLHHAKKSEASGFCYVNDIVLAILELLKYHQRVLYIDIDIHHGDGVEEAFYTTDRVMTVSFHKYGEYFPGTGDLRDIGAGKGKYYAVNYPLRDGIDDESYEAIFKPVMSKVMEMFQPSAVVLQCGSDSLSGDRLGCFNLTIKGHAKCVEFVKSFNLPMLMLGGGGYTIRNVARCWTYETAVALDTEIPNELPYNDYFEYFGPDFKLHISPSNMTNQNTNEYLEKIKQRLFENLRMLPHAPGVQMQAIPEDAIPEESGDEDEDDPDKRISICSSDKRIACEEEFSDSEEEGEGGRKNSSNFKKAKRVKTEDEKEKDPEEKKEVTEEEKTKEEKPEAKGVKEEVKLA
Procedure: as §1
Test 3: HDAC1 Assay Description
A similar assay procedure as described in Test 2 was used for HDAC1. Human recombinant full length HDAC1 expressed in a baculovirus expression system was purchased from BPS BioSciences (San Diego, Calif., U.S.A.). The substrate used in the […] assay was 5 μM of acetyl-Gly-Ala-Lys(acetyl)-AMC.

Human recombinant HDAC4 = Human recombinant HDAC4 (Homo sapiens (Human), UniProt P56524); test: Test 2: HDAC4 assay (fluorogenic substrate, 5 μM acetyl-Gly-Ala-Lys(ε-trifluoroacetyl)-AMC); conditions: Test 2 (values without asterisk)
Human recombinant HDAC4, sequence (P56524 2-1084): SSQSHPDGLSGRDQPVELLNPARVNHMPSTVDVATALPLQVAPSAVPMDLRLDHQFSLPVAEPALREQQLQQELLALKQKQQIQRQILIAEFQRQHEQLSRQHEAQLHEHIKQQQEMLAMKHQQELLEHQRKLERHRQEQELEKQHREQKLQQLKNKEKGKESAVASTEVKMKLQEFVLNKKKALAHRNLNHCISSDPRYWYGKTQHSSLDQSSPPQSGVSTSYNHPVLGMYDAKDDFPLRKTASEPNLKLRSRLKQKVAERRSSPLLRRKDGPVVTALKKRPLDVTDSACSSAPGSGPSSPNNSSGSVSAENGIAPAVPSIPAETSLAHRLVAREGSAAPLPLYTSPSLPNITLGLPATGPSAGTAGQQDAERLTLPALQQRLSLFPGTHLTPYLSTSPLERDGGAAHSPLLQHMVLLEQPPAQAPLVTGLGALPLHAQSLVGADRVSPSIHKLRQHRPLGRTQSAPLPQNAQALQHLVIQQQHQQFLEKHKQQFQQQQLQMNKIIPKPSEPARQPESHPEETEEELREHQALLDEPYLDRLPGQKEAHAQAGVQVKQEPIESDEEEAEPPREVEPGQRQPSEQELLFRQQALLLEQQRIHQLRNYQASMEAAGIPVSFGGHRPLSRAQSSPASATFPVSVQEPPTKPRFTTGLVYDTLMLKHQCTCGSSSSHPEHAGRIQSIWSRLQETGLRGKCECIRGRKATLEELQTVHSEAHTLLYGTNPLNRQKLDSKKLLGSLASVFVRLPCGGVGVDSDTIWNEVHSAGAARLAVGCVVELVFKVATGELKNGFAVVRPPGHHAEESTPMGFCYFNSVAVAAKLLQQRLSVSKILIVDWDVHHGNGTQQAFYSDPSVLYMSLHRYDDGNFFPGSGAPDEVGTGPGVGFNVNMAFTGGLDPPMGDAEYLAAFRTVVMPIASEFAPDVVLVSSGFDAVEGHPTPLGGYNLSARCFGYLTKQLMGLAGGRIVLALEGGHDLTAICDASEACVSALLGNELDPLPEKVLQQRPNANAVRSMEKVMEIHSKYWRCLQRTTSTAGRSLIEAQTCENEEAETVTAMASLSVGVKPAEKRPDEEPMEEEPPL
Procedure: Test 2: HDAC4 Assay Description
as §1

[3] = Test 4, substrate 5 μM acetyl-Gly-Ala-Lys(acetyl)-AMC

Human recombinant full length HDAC6, sequence (Q9UBN7 whole entry): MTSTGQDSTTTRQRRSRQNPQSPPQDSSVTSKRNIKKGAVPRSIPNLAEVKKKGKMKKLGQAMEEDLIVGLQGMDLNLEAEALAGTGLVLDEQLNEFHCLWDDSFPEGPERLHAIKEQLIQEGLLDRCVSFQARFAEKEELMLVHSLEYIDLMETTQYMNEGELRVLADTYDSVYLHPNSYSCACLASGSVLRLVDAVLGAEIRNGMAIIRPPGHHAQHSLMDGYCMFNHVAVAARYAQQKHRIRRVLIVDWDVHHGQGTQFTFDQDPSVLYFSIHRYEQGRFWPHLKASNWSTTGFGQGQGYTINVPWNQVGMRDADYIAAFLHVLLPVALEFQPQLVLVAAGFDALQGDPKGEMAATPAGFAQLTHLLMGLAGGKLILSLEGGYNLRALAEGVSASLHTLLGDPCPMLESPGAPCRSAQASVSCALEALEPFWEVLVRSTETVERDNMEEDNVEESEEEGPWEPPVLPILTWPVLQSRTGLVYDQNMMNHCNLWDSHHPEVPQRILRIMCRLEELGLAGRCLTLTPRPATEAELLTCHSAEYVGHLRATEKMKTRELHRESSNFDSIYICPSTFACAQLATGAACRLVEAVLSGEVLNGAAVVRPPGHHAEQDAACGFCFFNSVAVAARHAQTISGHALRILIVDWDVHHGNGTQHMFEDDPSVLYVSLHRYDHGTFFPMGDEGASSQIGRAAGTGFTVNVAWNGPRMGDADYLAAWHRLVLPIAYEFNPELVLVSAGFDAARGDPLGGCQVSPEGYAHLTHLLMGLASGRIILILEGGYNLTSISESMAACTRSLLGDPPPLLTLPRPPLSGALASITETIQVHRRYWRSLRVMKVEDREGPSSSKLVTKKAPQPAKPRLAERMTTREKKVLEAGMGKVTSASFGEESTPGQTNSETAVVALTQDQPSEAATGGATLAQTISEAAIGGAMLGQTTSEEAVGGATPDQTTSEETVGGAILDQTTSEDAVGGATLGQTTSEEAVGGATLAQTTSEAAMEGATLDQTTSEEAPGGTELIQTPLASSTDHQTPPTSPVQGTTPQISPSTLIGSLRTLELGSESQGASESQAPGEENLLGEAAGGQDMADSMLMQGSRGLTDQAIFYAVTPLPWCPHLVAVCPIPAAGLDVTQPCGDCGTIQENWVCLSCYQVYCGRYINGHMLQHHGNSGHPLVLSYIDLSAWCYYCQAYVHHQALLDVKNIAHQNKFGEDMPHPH

SMILES | IC50 [1, 3] [µM] | IC50 [2] [µM] | IC50 (Human recombinant HDAC4) [µM] | IC50 [1] [µM]
CN(C)C(=O)c1ccc(-c2noc(C(F)(F)F)n2)cc1 [Example 1, N,N-dimethyl-4-(5-(trifluoromethyl)-1,2,4-oxadiazol-3-yl)benzamide] | > 10 | > 10 | 0.36 | –
CNC(=O)c1ccc(-c2noc(C(F)(F)F)n2)cc1 [Example 2, N-Methyl-4-(5-(trifluoromethyl)-1,2,4-oxadiazol-3-yl)benzamide] | 3.2 | > 10 | 0.53 | –
CNC(=O)Cc1ccc(-c2noc(C(F)(F)F)n2)cc1 [Example 3, N-methyl-2-[4-(5-trifluoromethyl-[1,2,4]oxadiazol-3-yl)-phenyl]-acetamide] | > 10 | > 10 | 1.9 | –
CN(C)C(=O)Cc1ccc(-c2noc(C(F)(F)F)n2)cc1 [Example 4, N,N-Dimethyl-2-[4-(5-trifluoromethyl-[1,2,4]oxadiazol-3-yl)-phenyl]-acetamide] | 7.9 | > 10 | 0.62 | –
CC(C)NC(=O)Cc1ccc(-c2noc(C(F)(F)F)n2)cc1 [Example 5, N-Isopropyl-2-[4-(5-trifluoromethyl-[1,2,4]oxadiazol-3-yl)-phenyl]-acetamide] | 3.1 | > 10 | 0.97 | –
CCCCNC(=O)Cc1ccc(-c2noc(C(F)(F)F)n2)cc1 [Example 6, N-butyl-2-(4-(5-(trifluoromethyl)-1,2,4-oxadiazol-3-yl)phenyl)acetamide] | 3.2 | > 10 | 0.63 | –
COCCNC(=O)Cc1ccc(-c2noc(C(F)(F)F)n2)cc1 [Example 7, N-(2-methoxyethyl)-2-(4-(5-(trifluoromethyl)-1,2,4-oxadiazol-3-yl)phenyl)acetamide] | 6.9 | > 10 | 0.96 | –
CCOC(=O)CNC(=O)Cc1ccc(-c2noc(C(F)(F)F)n2)cc1 [Example 8, Ethyl 2-(2-(4-(5-(trifluoromethyl)-1,2,4-oxadiazol-3-yl)phenyl)acetamido)acetate] | 7.6 | > 10 | 0.58 | –
O=C(Cc1ccc(-c2noc(C(F)(F)F)n2)cc1)N1CCOCC1 [Example 9, 1-Morpholino-2-(4-(5-(trifluoromethyl)-1,2,4-oxadiazol-3-yl)phenyl)ethanone] | 5.5 | > 10 | 0.85 | –
CN1CCN(C(=O)Cc2ccc(-c3noc(C(F)(F)F)n3)cc2)CC1 [Example 10, 1-(4-methylpiperazin-1-yl)-2-(4-(5-(trifluoromethyl)-1,2,4-oxadiazol-3-yl)phenvyl)ethanone] | 5.6 | > 10 | 1.3 | –
CON(C)C(=O)Cc1ccc(-c2noc(C(F)(F)F)n2)cc1 [Example 11, N-methoxy-N-methyl-2-(4-(5-(trifluoromethyl)-1,2,4-oxadiazol-3-yl)phenvyl)acetamide] | 8.9 | > 10 | 1.1 | –
CCNC(=O)c1ccc(-c2noc(C(F)(F)F)n2)cc1 [Example 12, N-ethyl-4-(5-(trifluoromethyl)-1,2,4-oxadiazol-3-yl)benzamide] | 4.1 | > 10 | 0.43 | –
O=C(NCCO)c1ccc(-c2noc(C(F)(F)F)n2)cc1 [Example 13, N-(2-hydroxyethyl)-4-(5-(trifluoromethyl)-1,2,4-oxadiazol-3-yl)benzamide] | 8.9 | > 10 | 0.66 | –
CCN(C)C(=O)c1ccc(-c2noc(C(F)(F)F)n2)cc1 [Example 14, N-ethyl-N-methyl-4-(5-(trifluoromethyl)-1,2,4-oxadiazol-3-yl)benzamide] | > 10 | > 10 | 0.9 | –
CN(CCO)C(=O)c1ccc(-c2noc(C(F)(F)F)n2)cc1 [Example 15, N-(2-hydroxyethyl)-N-methyl-4-(5-(trifluoromethyl)-1,2,4-oxadiazol-3-yl)benzamide] | > 10 | > 10 | 0.99 | –
COCCNC(=O)c1ccc(-c2noc(C(F)(F)F)n2)cc1 [Example 16, N-(2-methoxyethyl)-4-(5-(trifluoromethyl)-1,2,4-oxadiazol-3-yl)benzamide] | 6.8 | > 10 | 1.4 | –
O=C(NCCCO)c1ccc(-c2noc(C(F)(F)F)n2)cc1 [Example 17, N-(3-hydroxyypropyl)-4-(5-(trifluoromethyl)-1,2,4-oxadiazol-3-yl)benzamide] | – | > 10 | 1.4 | 8.6

SMILES | IC50 [1, 3] [µM] | IC50 [2] [µM] | IC50 (Human recombinant HDAC4) [µM] | IC50 [1] [µM]
COCCN(C)C(=O)c1ccc(-c2noc(C(F)(F)F)n2)cc1 [Example 18, N-(2-methoxyethyl)-N-methyl-4-(5-(trifluoromethyl)-1,2,4-oxadiazol-3-yl)benzamide] | > 10 | > 10 | 0.39 | –
CC(C)NC(=O)c1ccc(-c2noc(C(F)(F)F)n2)cc1 [Example 20, N-isopropyl-4-(5-(trifluoromethyl)-1,2,4-oxadiazol-3-yl)benzamide] | > 10 | > 10 | 1 | –
COCCCNC(=O)c1ccc(-c2noc(C(F)(F)F)n2)cc1 [Example 21, N-(3-methoxyypropyl)-4-(5-(trifluoromethyl)-1,2,4-oxadiazol-3-yl)benzamide] | 5.7 | > 10 | 0.73 | –
O=C(c1ccc(-c2noc(C(F)(F)F)n2)cc1)N1CCCC1 [Example 23, Pyrrolidin-1-yl(4-(5-(trifluoromethyl)-1,2,4-oxadiazol-3-yl)phenyl)methanone] | 6 | > 10 | 1.5 | –
CC(C)N(C)C(=O)c1ccc(-c2noc(C(F)(F)F)n2)cc1 [Example 24, N-isopropyl-N-methyl-4-(5-(trifluoromethyl)-1,2,4-oxadiazol-3-yl)benzamide] | > 10 | > 10 | 0.77 | –
O=C(NC1CCC1)c1ccc(-c2noc(C(F)(F)F)n2)cc1 [Example 25, N-cyclobutyl-4-(5-(trifluoromethyl)-1,2,4-oxadiazol-3-yl)benzamide] | 6.5 | > 10 | 0.47 | –
O=C(NCC1CC1)c1ccc(-c2noc(C(F)(F)F)n2)cc1 [Example 26, N-(cyclopropylmethyl)-4-(5-(trifluoromethyl)-1,2,4-oxadiazol-3-yl)benzamide] | 3.2 | > 10 | 0.61 | –
CC(C)CNC(=O)c1ccc(-c2noc(C(F)(F)F)n2)cc1 [Example 27, N-isobutyl-4-(5-(trifluoromethyl)-1,2,4-oxadiazol-3-yl)benzamide] | > 10 | > 10 | 1.2 | –
C[C@H](CO)NC(=O)c1ccc(-c2noc(C(F)(F)F)n2)cc1 [Example 28, (R)—N-(1-hydroxyypropan-2-yl)-4-(5-(trifluoromethyl)-1,2,4-oxadiazol-3-yl)benzamide] | 7.7 | > 10 | 0.35 | –
O=C(NC1CCCC1)c1ccc(-c2noc(C(F)(F)F)n2)cc1 [Example 29, N-cyclopentyl-4-(5-(trifluoromethyl)-1,2,4-oxadiazol-3-yl)benzamide] | > 10 | > 10 | 1.2 | –
CCC(CC)NC(=O)c1ccc(-c2noc(C(F)(F)F)n2)cc1 [Example 30, N-(pentan-3-yl)-4-(5-(trifluoromethyl)-1,2,4-oxadiazol-3-yl)benzamide] | > 10 | > 10 | 6.4 | –
CN(C)CCNC(=O)c1ccc(-c2noc(C(F)(F)F)n2)cc1 [Example 31, N-(2-(dimethylamino)ethyl)-4-(5-(trifluoromethyl)-1,2,4-oxadiazol-3-yl)benzamide] | 7.05 | 7.6 | 0.08 | –
O=C(c1ccc(-c2noc(C(F)(F)F)n2)cc1)N1CCCCC1 [Example 33, Piperidin-1-yl(4-(5-(trifluoromethyl)-1,2,4-oxadiazol-3-yl)phenyl)methanone] | > 10 | > 10 | 0.4 | –
O=C(NC1CCCCC1)c1ccc(-c2noc(C(F)(F)F)n2)cc1 [Example 34, N-cyclohexyl-4-(5-(trifluoromethyl)-1,2,4-oxadiazol-3-yl)benzamide] | > 10 | > 10 | 0.75 | –
O=C(Nc1ccccc1)c1ccc(-c2noc(C(F)(F)F)n2)cc1 [Example 35, N-phenyl-4-(5-(trifluoromethyl)-1,2,4-oxadiazol-3-yl)benzamide] | > 10 | > 10 | 6.7 | –
O=C(N[C@H]1CCNC1)c1ccc(-c2noc(C(F)(F)F)n2)cc1 [Example 87, (S)—N-(pyrrolidin-3-yl)-4-(5-(trifluoromethyl)-1,2,4-oxadiazol-3-yl)benzamide] | – | – | 0.3 | –
CCCN(CCC)C[C@@H](C)NC(=O)c1ccc(-c2noc(C(F)(F)F)n2)cc1 [Example 137, (R)—N-(1-(dipropylamino)propan-2-yl)-4-(5-(trifluoromethyl)-1,2,4-oxadiazol-3-yl)benzamide] | 3 | 2.2 | – | –
